Measured values reported in patent EP0694547B1, “2-(2-amino-1,6-dihydro-6-oxo-purin-9-yl)methoxy-1,3-propanediol derivatives” (F. Hoffmann-La Roche AG, priority 1994, dated 1996).
One block for each compound: values may come before it.

What was measured:
[1] = Determination of oral absorption (bioavailability) in the rat
Experimental: The following assay was used to determine the oral absorption (oral bioavailability) of the compound of Formula I (L-monovaline ester of ganciclovir) and of other ganciclovir amino acid esters, other ganciclovir esters and ethers examined for comparative purposes.
To measure the oral bioavailability of a compound first the plasma level of the compound in male rats was determined after a single oral (po) dose of the compound. […] For ganciclovir the single dose in each case, po and iv, is 10 mg/kg; for a prodrug ester (including the L-monovaline ester of ganciclovir) the single dose in each case, oral and iv, is a dose equimolar to 10 mg/kg of ganciclovir. From the two measurements following po and iv administration, the oral bioavailability of a compound was calculated by dividing the total area under the concentration vs. time curve following p.o. administration by the total area under the concentration vs. time curve following iv administration, appropriately corrected for dose, according to the equation: F(p.o.) (%) = [AUC(p.o.) /AUC(i.v.) ] x [Dose(i.v.) / Dose(p.o.) ] x 100 [formula]
The dose vehicle for oral and intravenous dosing consisted normal saline containing 2 % acetic acid. In both cases the compound concentration was equivalent to 4.0 mg/ml ganciclovir with a dose rate equivalent to 10 mg/kg (2.5 ml/kg) of ganciclovir. A 200 gm rat received 0.5 ml of the oral drug solution by gavage or via injection into the tail vein.
The rats were acclimatized to the laboratory environment for three days and fasted overnight before start of the experiment and until 4 hours after dosing. Blood was collected from 4 rats at each of the following times: 0 min (pre-dose), 5 min (iv only), 15 min, 30 min, 1 hr, 2 hr, 3 hr, 5 hr, 7 hr, 10 hr and 24 hr. The blood was immediately centrifuged to obtain the plasma and the plasma frozen at -20 °C until analysis.
Aliquots of plasma (0.50 ml) were mixed with 0.020 ml of internal standard (acyclovir, 15 µg/ml in 10 % methanol/water) and 3.0 ml of acetonitrile. The mixture was vortexed and the resulting precipitate was removed by centrifugation (4,000 g, 10 min). The supernatant was evaporated to dryness under nitrogen and reconstituted in 200 µl of HPLC mobile phase. Aliquots (0.05 ml) were analyzed by HPLC using a Keystone Hypersil BDS, 250 x 4.6 mm C 18 column. The mobile phase contained 2 % acetonitrile in 30 mM sodium phosphate buffer containing 5 mM heptane sulfonic acid, pH 2.0 and was pumped at 1.0 ml/min. Ganciclovir and internal standard were detected and measured by UV absorbance at 254 nm.

[2] = in vivo, po; cited from earlier work
[3] = Determination of oral absorption (bioavailability) in the Cynomolgus monkey; type: in vivo, Male cynomolgus monkeys; details: oral gavage dose equimolar to 10 mg/kg ganciclovir, plasma ganciclovir
Experimental: Male cynomolgus monkeys weighing 5 to 7 kilos were used. The animals were fed monkey chow, fruit and water and maintained on a 12 hour light cycle. The tested compounds were formulated at a concentration equimolar to a 10 mg/ml solution of ganciclovir in saline. The oral formulation was administered by gavage at a rate of 1.0 ml/kg for a final dose equimolar to a 10 mg/kg dose of ganciclovir. The iv formulation of ganciclovir was formulated in saline containing 0.2% HCl at a concentration of 20 mg/ml and administered at a rate of 0.5 ml/kg.
The animals were fasted beginning the evening prior to dosing and until 4 hr after dosing. […] The blood samples were collected in heparinized syringes and the plasma was immediately isolated by centrifugation and frozen at -20 °C until analysis.
The bioavailability (F) is calculated according to the equation given in Example 9.

[4] = relative to acyclovir; cited from earlier work
[5] = type: physicochemical; details: pH 7
Experimental: Alternatively, the compound of the invention may be prepared using optically active reactants. When pure diastereomers of mono-L-valine ganciclovir are prepared the condensation step (d) is the preferred method of synthesis. However, if optically active reagents are being used it would be important to avoid the pH range above 6, as at the higher pH range interconversion of the free compound of Formula I occurs.

Structure (SMILES): CCC(=O)OCC(COC(=O)CC)OCn1cnc2c(=O)[nH]c(N)nc21 [G-bis(propionic acid) ester]
ORAL BIOAVAILABILITY (F %) ([1]; rat, in vivo, 1440 min): 17.7%
more bioavailable than ganciclovir itself [2]: about 42%

ORAL BIOAVAILABILITY (F %) ([1]; rat, in vivo, 1440 min): 98.1%
Structure (SMILES): CC(C)[C@H](N)C(=O)OCC(CO)OCn1cnc2c(=O)[nH]c(N)nc21.Cl (stereo partly drawn) [G-L-valinate hydrochloride, 2-(2-Amino-1,6-dihydro-6-oxo-purin-9-yl)methoxy-3-hydroxy-1-propanyl-L-valinate hydrochloride]

bioavailability [3]: 9.9%
bioavailability at 24 h ([1]; rat, plasma, po, 10 mg/kg): 7.9%
Structure (SMILES): Nc1nc(O)c2ncn(COC(CO)CO)c2n1 [Ganciclovir, 2-(2-Amino-1,6-dihydro-6-oxo-purin-9-yl)-methoxy-1,3-propanediol]

ORAL BIOAVAILABILITY (F %) ([1]; male rats, single po and iv dose equimolar to 10 mg/kg ganciclovir, plasma ganciclovir AUC 0-24 hr): non-detectable
Structure (SMILES): Nc1nc2c(ncn2COC(COCc2ccccc2)COCc2ccccc2)c(=O)[nH]1 [G-dibenzyl ether]

Structure (SMILES): NCC(=O)OCCOCn1cnc2c(=O)[nH]c(N)nc21 [glycyl ester of acyclovir]
solubility greater than the solubility of acyclovir itself [4]: about 30 fold

half-life [5]: less than one
Structure (SMILES): CC(C)[C@H](N)C(=O)OCC(CO)OCn1cnc2c(=O)nc(N)[nH]c21 (stereo partly drawn) [Formula I, 2-(2-amino-1,6-dihydro-6-oxo-purin-9-yl)methoxy-3-hydroxy-1-propanyl-L-valinate]
